What all share (experiment): NCI-60 cell line screen, 48 h
Assay [1] deals with A549 NSCLC.
Assay [2] deals with ACHN renal.
Assay [3] has as its system BT-549 breast.
Assay [4] relates to DU-145 prostate.
Assay [5] relates to HCT-116 colon.
Assay [6] relates to IGROV1 ovarian.
In assay [7] the test system is KM12 colon.
Assay [8] deals with OVCAR-3 ovarian.
The test system of assay [9] is OVCAR-4 ovarian.
Assay [10] has as its system OVCAR-5 ovarian.
The test system of assay [11] is OVCAR-8 ovarian.
In assay [12] the test system is PC-3 prostate.
Assay [13] concerns RPMI-8226 leukemia.
Assay [14] deals with SF-268 CNS.
Assay [15] deals with SK-MEL-2 melanoma.
The subject of assay [16] is SR leukemia.
Assay [17] concerns SW-620 colon.
The test system of assay [18] is UACC-257 melanoma.

Our source for the TGI values is PubChem BioAssay (NCI).

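Exposure lasted 48 hours, with cells grown in 96-well plates and compounds tested at five concentrations. TGI is the concentration that stops growth completely.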

`Nc1ccc(CCSSCCc2ccc(N)cc2)cc1`: the TGI was more than 100 µM in [1]; more than 93.2 µM in [2]; 79.1 µM in [3]; more than 87.4 µM in [4]; 31.9 µM in assay [5]; more than 100 µM in assay [6]. For the same compound, the TGI in assay [7] was more than 100 µM; in assay [8] it was more than 88.4 µM; in assay [9], more than 100 µM; in assay [10], 83.5 µM; in [11], more than 88.2 µM; in [12], more than 78.9 µM. Also, the TGI in assay [13] was more than 81.8 µM; in assay [14] it was 45.2 µM; in assay [15], 43.4 µM; in assay [16], 31.6 µM; in [17], more than 76.8 µM; in assay [18], 51.7 µM.
`CC1(C)C/C(=N/O)c2c(nc3ccc4ccccc4c3c2-c2ccc(Cl)cc2)C1`: the TGI in assay [1] amounted to 51 µM; in assay [2], 19.4 µM; in [3], 30.9 µM; in [4], 40.9 µM; in assay [5], 24.1 µM; in assay [6] it was 31.6 µM. The TGI in [7] is more than 100 µM; in [8], 24.7 µM; in assay [9], 30.4 µM; in assay [10], more than 100 µM; in assay [11] it was 25 µM; in assay [12], more than 100 µM. For the same compound, the TGI is more than 100 µM in [13]; 30.1 µM in assay [14]; more than 100 µM in [15]; 21 µM in assay [16]; 77.9 µM in assay [17]; 91.2 µM in assay [18].
For `COc1cccc(-c2nc3ccccc3c(=O)[nH]2)c1OC`, the TGI in assay [1], in assay [2], in assay [3], in [4], in assay [5] and in assay [6] was more than 100 µM each time. Moreover, the TGI in assay [7], in assay [8], in assay [9], in assay [10], in assay [11] and in assay [12] was more than 100 µM throughout. Further, the TGI in assay [13] was 49.4 µM; in [14], more than 100 µM; in assay [15], more than 100 µM; in assay [16] it was more than 100 µM; in [17], more than 100 µM; in [18], more than 100 µM.
Turning to `c1ccc2c(c1)cc1c3[nH]c4ccccc4c3ccn21`, the TGI in assay [1], in [2], in [3], in assay [4], in assay [5] and in assay [6] was more than 10 µM each time. In addition, the TGI in assay [7], in [8], in [9], in assay [10], in assay [11] and in assay [12] was more than 10 µM throughout. Further, the TGI in assay [13], in assay [14], in [15], in assay [16], in [17] and in [18] was more than 10 µM throughout.
`C=CCN1C(=O)/C(=C/c2ccc(C)cc2)NC1=S`: the TGI in assay [1], in assay [2], in [3], in assay [4], in assay [5] and in assay [6] was more than 100 µM each time. Moreover, the TGI in assay [7], in [8], in [9], in assay [10], in assay [11] and in assay [12] was more than 100 µM in each case. Further, the TGI in assay [13], in assay [14], in assay [15], in assay [16], in assay [17] and in [18] was more than 100 µM in each case.
As for `Cc1ccc(C2SC(N)=Nc3c2c(C)nn3C(=O)c2ccccc2O)cc1` (stereo unspecified), the TGI in assay [1], in assay [2], in [3], in assay [4], in [5] and in assay [6] was more than 10 µM each time. The TGI in assay [7], in assay [8], in assay [9], in assay [10], in assay [11] and in assay [12] was more than 10 µM in each case. Moreover, the TGI in assay [13], in assay [14], in [15], in [16], in assay [17] and in [18] was more than 10 µM in each case.
As to `COc1c(Br)cc(/C=C(\C#N)c2cccnc2)cc1Br`, the TGI in assay [1], in assay [2], in assay [3], in [4], in assay [5] and in assay [6] was more than 100 µM each time. Besides, the TGI in assay [7], in assay [8], in assay [9], in [10], in [11] and in [12] was more than 100 µM throughout. Further, the TGI in assay [13], in assay [14], in assay [15], in assay [16], in assay [17] and in [18] was more than 100 µM each time.
